According to patent US20260125375A1 (Pfizer Inc., priority 2022, published 2026):
Where two headings read alike, the source gives them in different places.

Assays:
WT CBL-B (36-427) = target: T1, WT CBL-B (36-427) (Homo sapiens, UniProt Q13191); assay: Surface Plasmon Resonance (SPR) assay, binding affinity and kinetics, CBL-B; settings: SPR at 10° C., biotinylated WT CBL-B (36-427) on streptavidin chip; geometric mean; read-out: CBL-B SPR Kd (nM) GMean
T1 construct: N-terminal biotinylated WT CBL-B (36-427) and C-CBL (46-435) were captured on a streptavidin (SA) coated sensor chip
Summary of the method: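 Biotinylated WT CBL-B (36-427) or C-CBL (46-435) captured on streptavidin chip (~5000–6000 RU); binding at 10° C in HEPES buffer pH 7.2 with 2% DMSO. Multi-cycle: 2-fold, 10-point series from 10 or 100 μM, 90 s association. Single-cycle: 3-fold, 6-point, 0.001–1 μM, 120 s association, >5400 s dissociation.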

CBL-B = target: T2, CBL-B (Homo sapiens, UniProt Q13191); assay: Jurkat HiBit-IL2 assay (c-CBL KO), reporter cell line expressing CBL-B only; format: cell-based; settings: geometric mean, read-out: C-CBL KO EC50 (nM) GMean
T2 construct: endogenous in cells; host or cells: Jurkat HiBit-IL2 reporter cells, C-CBL knocked out by CRISPR
Summary of the method: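 CRISPR knockout Jurkat HiBit-IL2 reporter cells (20,000/well) were preincubated 1 h with compounds (0.1% DMSO), then stimulated 4 h at 37 °C with anti-CD3 (1 μg/ml) and anti-CD28 (2 μg/ml) final. IL-2 was read by HiBiT lytic luminescence, normalized as fold over antibody-only baseline; EC50 reported as geometric mean.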

CBL-B (residues 36-427) = target: T3, CBL-B (residues 36-427) (Homo sapiens, UniProt Q13191); assay: Ligand Displacement Assay (LDA), HTRF competitive binding against BODIPY-labeled fluorescent tracer, CBL-B; settings: geometric mean of the number of tests, read-out: CBL-B Ki (nM) GMean
T3 construct: Purified CBL-B (residues 36-427) and C-CBL (residues 46-435) proteins from baculovirus-infected insect cells; made in house; host or cells: baculovirus-infected insect cells
Summary of the method: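 First, the insect-cell-expressed protein is biotinylated at its amino-terminal AviTag with BirA and coupled to SA-Tb. Next, the tracer KD is determined for each protein. Finally, compounds are titrated three-fold in duplicate […], at 2% DMSO, and Ki is reported as a geometric mean.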

[1] = c-CBL KO (CBL-B only), anti-CD3/anti-CD28 stimulation 4 hours, Table 16a
[2] = C-CBL KO (expressing CBL-B only), Table 16b (further repetition)

SMILES | Kd (WT CBL-B (36-427)) [nM] | EC50 (CBL-B; [1]) [nM] | Ki (CBL-B (residues 36-427)) [nM] | EC50 (CBL-B; [2]) [nM]
C[C@H]1CN(Cc2nc(C(F)(F)F)cc3c(-c4cccc([C@H](c5nncn5C)C5CCC5)c4)n[nH]c23)CCO1 [Example C6, 3-{3-[(R)-cyclobutyl(4-methyl-4H-1,2,4-triazol-3-yl)methyl]phenyl}-7-{[(2S)-2-methylmorpholin-4-yl]methyl}-5-(trifluoromethyl)-1H-pyrazolo[3,4-c]pyridine] | 4.4 | 115 | 25.8 | –
C[C@H]1CCCN(Cc2nc(C(F)(F)F)cc3c(-c4cccc([C@H](c5nncn5C)C5CCC5)c4)n[nH]c23)C1 [Example C7, 3-{3-[(R)-cyclobutyl(4-methyl-4H-1,2,4-triazol-3-yl)methyl]phenyl}-7-{[(3S)-3-methylpiperidin-1-yl]methyl}-5-(trifluoromethyl)-1H-pyrazolo[3,4-c]pyridine] | 2.7 | 58 | 3.7 | –
C[C@H](N[C@H]1CCC(F)(F)C1)c1nc(C(F)(F)F)cc2c(-c3cccc([C@H](c4nncn4C)C4CCC4)c3)n[nH]c12 [Example C8] | 2.2 | 6 | 1.1 | –
C[C@@H](N[C@H]1CCC(F)(F)C1)c1nc(C(F)(F)F)cc2c(-c3cccc([C@H](c4nncn4C)C4CCC4)c3)n[nH]c12 [Example C9] | 3.1 | 32 | 5 | 32
CC(NC1CCCC1)c1nc(C(F)(F)F)cc2c(-c3cccc([C@H](c4nncn4C)C4CCC4)c3)n[nH]c12 (stereo partly drawn) [Example C14, N-{(1ξ)-1-[3-{3-[(R)-cyclobutyl(4-methyl-4H-1,2,4-triazol-3-yl)methyl]phenyl}-5-(trifluoromethyl)-1H-pyrazolo[3,4-c]cyclopen-7-yl]ethyl}cyclopentanamine] | 1.4 | 4 | 0.4 | 5
C[C@@H](NC1CCC1)c1nc(C(F)(F)F)cc2c(-c3cccc(C4(Cc5nncn5C)COC4)c3)n[nH]c12 [Example C16] | 2 | 75 | 10 | –
C[C@@H]1CCCN(Cc2nc(C(F)(F)F)cc3c(-c4cccc(C5(Cc6nncn6C)COC5)c4)n[nH]c23)C1 [Example C29, 7-{[(3R)-3-methylpiperidin-1-yl]methyl}-3-(3-{3-[(4-methyl-4H-1,2,4-triazol-3-yl)methyl]oxetan-3-yl}phenyl)-5-(trifluoromethyl)-1H-pyrazolo[3,4-c]pyridine] | 3.8 | 204 | 8.5 | –
C[C@H]1CCCN(Cc2nc(C(F)(F)F)cc3c(-c4cccc(C5(Cc6nncn6C)COC5)c4)n[nH]c23)C1 [Example C30, 7-{[(3S)-3-methylpiperidin-1-yl]methyl}-3-(3-{3-[(4-methyl-4H-1,2,4-triazol-3-yl)methyl]oxetan-3-yl}phenyl)-5-(trifluoromethyl)-1H-pyrazolo[3,4-c]pyridine] | 3 | 32 | 3.6 | –
Cn1cnnc1CC1(c2cccc(-c3n[nH]c4c(CN5CCCCC5)nc(C(F)(F)F)cc34)c2)COC1 [Example C33, 3-(3-{3-[(4-methyl-4H-1,2,4-triazol-3-yl)methyl]oxetan-3-yl}phenyl)-7-[(piperidin-1-yl)methyl]-5-(trifluoromethyl)-1H-pyrazolo[3,4-c]pyridine] | 6.8 | 116 | 22.6 | –
Cn1cnnc1CC1(c2cccc(-c3n[nH]c4c(CN[C@H]5CCC(F)(F)C5)nc(C(F)(F)F)cc34)c2)COC1 [Example C38, (1S)-3,3-difluoro-N-{[3-(3-{3-[(4-methyl-4H-1,2,4-triazol-3-yl)methyl]oxetan-3-yl}phenyl)-5-(trifluoromethyl)-1H-pyrazolo[3,4-c]pyridin-7-yl]methyl}cyclopentan-1-amine] | 7.5 | 71 | 6.9 | –
Cn1cnnc1[C@@H](c1cccc(-c2n[nH]c3c(CN[C@H]4CCOC4)nc(C(F)(F)F)cc23)c1)C1CCC1 [Example D1, (3S)—N-{[3-{3-[(R)-cyclobutyl(4-methyl-4H-1,2,4-triazol-3-yl)methyl]phenyl}-5-(trifluoromethyl)-1H-pyrazolo[3,4-c]pyridin-7-yl]methyl}oxolan-3-amine] | 3.7 | 276 | 22.4 | –
Cn1cnnc1[C@@H](c1cccc(-c2n[nH]c3c(CNC4CCCC4)nc(C(F)(F)F)cc23)c1)C1CCC1 [Example D4] | 2.8 | 72 | 5.1 | –
C[C@H](NC1CCC1)c1nc(C(F)(F)F)cc2c(-c3cccc(C4(Cc5nncn5C)COC4)c3)n[nH]c12 [Example F1, N-{(1S)-1-[3-(3-{3-[(4-methyl-4H-1,2,4-triazol-3-yl)methyl]oxetan-3-yl}phenyl)-5-(trifluoromethyl)-1H-pyrazolo[3,4-c]pyridin-7-yl]ethyl}cyclobutanamine] | 0.7 | 8 | 1.3 | 15
C[C@H](N)c1nc(C(F)(F)F)cc2c(-c3cccc([C@H](c4nncn4C)C4CCC4)c3)n[nH]c12 [Example K12, (1S)-1-[3-{3-[(R)-cyclobutyl(4-methyl-4H-1,2,4-triazol-3-yl)methyl]phenyl}-5-(trifluoromethyl)-1H-pyrazolo[3,4-c]pyridin-7-yl]ethan-1-amine] | 4.2 | – | 19.3 | 895
